The values below come from article PMC11356900, “Synthesis, Structural Properties and Biological Activities of Novel Hydrazones of 2-, 3-, 4-Iodobenzoic Acid” (Molecules, 2024).

Experiment [1] deals with Bordetella bronchiseptica ATCC 4617. Briefly: Broth microdilution MIC/MBC. To be noted: ATCC4617. (Dilution methods test growth across graded concentrations, often in twofold steps.)
For experiment [2], the system named is Candida spp. Kind of experiment: Broth microdilution, summary over reference yeasts. The experiment is classed as cell-based. Particulars: for MFC/MIC / MIC / MFC: range over the reference Candida spp. strains; for antifungal activity in words: reference yeasts from Candida spp. An outline of the steps:
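Following EUCAST and CLSI guidance, growth inhibition is measured in broth across final compound levels of 1000 down to 0.488 µg/mL. Cidal endpoints come from spotting each well onto agar; three independent repeats.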

Experiment [3] has as its system Salmonella typhimurium ATCC 14028. Briefly: Broth microdilution MIC/MBC. Particulars: for MIC / MBC: Salmonella enterica; for MBC/MIC: Salmonella typhimurium ATCC 14028.
Experiment [4] relates to Staphylococcus aureus ATCC 43300. Kind of experiment: Broth microdilution MIC/MBC. Particulars: ATCC43300 / MRSA.
The test system of experiment [5] is Staphylococcus aureus ATCC 29213. Briefly: Broth microdilution MIC/MBC. Particulars: ATCC29213.
The test system of experiment [6] is Bacillus subtilis ATCC 6633. Kind of experiment: Broth microdilution MIC/MBC. Particulars: ATCC6633.

In brackets after ≈: the same amount, converted by molar mass. Bounds are passed on as bounds.

`O=C(N/N=C/c1cc(Br)cc(Br)c1O)c1cccc(I)c1` [Compound 21, N-[(3,5-dibromo-2-hydroxyphenyl)methylidene]-3-iodobenzohydrazide]: the MIC is more than 1000 µg/mL in experiment [1]; 125 to 500 µg/mL (≈ 239 to 954 µM) in experiment [2]; more than 1000 µg/mL in experiment [3]; 15.6 µg/mL (≈ 29.8 µM) in experiment [4]; 15.6 µg/mL (≈ 29.8 µM) in experiment [5]; 7.81 µg/mL (≈ 14.9 µM) in experiment [6]. In experiment [2], this compound registered an MFC/MIC of more than 4. Moreover, the “antifungal activity in words” value in experiment [2] was “good and moderate”. The MBC in experiment [4] was 62.5 µg/mL (≈ 119 µM); in experiment [5], 15.6 µg/mL (≈ 29.8 µM); in experiment [6], 31.2 µg/mL (≈ 59.6 µM).
As for `O=C(N/N=C/c1cc(Cl)cc(I)c1O)c1ccc(I)cc1` [Compound 27, N-[(5-chloro-2-hydroxy-3-iodophenyl)methylidene]-4-iodobenzohydrazide], the MBC stood at 1000 µg/mL (≈ 1900 µM) in experiment [1]; 1000 µg/mL (≈ 1900 µM) in experiment [3]; 250 µg/mL (≈ 475 µM) in experiment [4]; 125 µg/mL (≈ 237 µM) in experiment [5]; 500 µg/mL (≈ 950 µM) in experiment [6]. Further, the MBC/MIC in experiment [1] and in experiment [3] was 2 each time. For the same compound, the MIC is 500 µg/mL (≈ 950 µM) in experiment [1]; 31.2 to 62.5 µg/mL (≈ 59.4 to 119 µM) in experiment [2]; 500 µg/mL (≈ 950 µM) in experiment [3]; 62.5 µg/mL (≈ 119 µM) in experiment [4]; 62.5 µg/mL (≈ 119 µM) in experiment [5]; 125 µg/mL (≈ 237 µM) in experiment [6]. Moreover, in experiment [2], the MFC amounted to 62.5 µg/mL (≈ 119 µM). For the same compound, the MFC/MIC in experiment [2] was 1–2. In addition, in experiment [2], the “antifungal activity in words” value was “good (good bioactivity as a MIC in the range 26 – 125 µg/mL)”.
Consider `O=C(N/N=C/c1cc(Cl)cc(I)c1O)c1cccc(I)c1` [Compound 20, N-[(5-chloro-2-hydroxy-3-iodophenyl)methylidene]-3-iodobenzohydrazide], for which the MBC in experiment [1] is more than 1000 µg/mL; in experiment [3], more than 1000 µg/mL; in experiment [4], 7.81 µg/mL (≈ 14.8 µM); in experiment [5] it was 3.91 µg/mL (≈ 7.43 µM); in experiment [6], 31.2 µg/mL (≈ 59.4 µM). The MBC/MIC in experiment [1] is given as more than 2; in experiment [3] it was more than 1. For the same compound, the MIC in experiment [1] was 500 µg/mL (≈ 950 µM); in experiment [2], 125 to 500 µg/mL (≈ 237 to 950 µM); in experiment [3], 1000 µg/mL (≈ 1900 µM); in experiment [4] it was 3.91 µg/mL (≈ 7.43 µM); in experiment [5], 3.91 µg/mL (≈ 7.43 µM); in experiment [6], 7.81 µg/mL (≈ 14.8 µM). The same compound gave an MFC/MIC in experiment [2] of more than 4. Also, the “antifungal activity in words” value in experiment [2] was “good and moderate”.
Regarding `O=C(N/N=C/c1cc(I)cc(I)c1O)c1ccccc1I` [Compound 14, N-[(3,5-diiodo-2-hydroxyphenyl)methylidene]-2-iodobenzohydrazide], in experiment [2], the minimum fungicidal concentration (MFC) is not below 1000 µg/mL, the MIC was in the range of 250 to 1000 µg/mL (≈ 405 to 1620 µM) and the “antifungal activity in words” value is given as “moderate or mild”. In experiment [4], this compound gave an MBC of 1000 µg/mL (≈ 1620 µM) and an MIC of 250 µg/mL (≈ 405 µM). Moreover, in experiment [5], the MBC is 500 µg/mL (≈ 809 µM) and the MIC is 125 µg/mL (≈ 202 µM). In experiment [6], the MBC turned out to be 500 µg/mL (≈ 809 µM) and the MIC was found to be 500 µg/mL (≈ 809 µM).

Broadly, the MIC is the lowest concentration that inhibits growth of the organism. A high value points to weaker potency. Usually MBC stands for the lowest tested concentration that kills the bacteria rather than only halting them. Read a high MBC as less potent killing. The MFC is the smallest concentration meeting the test's criterion for killing the fungus.
